The subject of data set [1] is interferon γ (IFN-γ) production. The experiment in a line: Cytokine production inhibitory effect: IFN-γ production by murine spleen cells treated with anti-mouse CD3 antibody and IL-2 (ELISA). Format: cell-based, Balb/c mice. To be noted: anti-CD3 antibody + IL-2, 40 to 48 hours, read-out: IFN-γ production inhibitory ratio (%); for inhibition at 100 ppm: test compound 100 ppm. The method, then:
(§1) Murine spleen cells were treated with anti-mouse CD3 antibody and IL-2 to induce cytokine production. The test compounds were added to the cytokine production system to evaluate their inhibitory effect. Namely, anti-mouse CD3 antibody adjusted to from 10 to 20 μg/ml with borate buffered physiological saline (pH 8.5) was pipetted into a 96-well cell culture plate in an amount of 50 μl/well and left to stand at 4° C. for 18 hours. The unreacted solution was removed, washing with Hank's buffer solution was carried out once, and IL-2 adjusted to 10 ng/ml with a RPMI liquid containing 10% fetal bovine serum (FCS) was pipetted in an amount of 50 μl/well. For the negative control group, a solution alone without anti-CD3 antibody nor IL-2 was applied. Then, the diluted solution of each of the test compounds (concentration: 100 ppm unless otherwise specified) was pipetted in an amount of 50 μl/well, and a cell suspension of 1×10^7 cells/ml, prepared from spleen of Balb/c mice (female, 7 to 10 week old) was pipetted thereinto in an amount of 100 μl/well. After cultivation in an incubator (37° C., 5% carbon dioxide gas) for from 40 to 48 hours, the culture supernatant was recovered to measure the cytokine production amount by ELISA method.
(§2) With respect to interleukin 5 (IL-5) as a typical Th2 type cytokine and interferon γ (IFN-γ) as a typical Th1 type cytokine, measurements were carried out by the following methods, respectively. Namely, quantitative determination of IL-5 was carried out by the following ELISA method. First, rat anti-mouse IL-5 antibody (Endogen Code No. MM-550C) as a primary antibody was diluted with carbonate buffer solution (pH 9.5) to 1 μg/ml, and spread in a 96 well plate (IWAKI, Code No. 3860-096) in an amount of 50 μl/well for coating at 4° C. overnight (16 to 24 hours). Then, the plate was subjected to blocking at 37° C. for 2 hours by phosphate buffered physiological saline containing 10% FCS (pH 7.2) (blocking buffer solution) (250 μl/well). The plate was washed with PBS (washing buffer) containing 0.05% Tween 20 (Nacalai Tesque, Code No. 281-51) four times, and a diluted liquid of the culture supernatant was spread in an amount of 50 μl/well, followed by incubation at room temperature for 1 hour. For preparation of a standard line, recombinant mouse IL-5 (R&D systems, Code No. 405-ML) was employed. The plate was washed with a washing buffer four times, and biotin-labeled rat anti-mouse IL-5 antibody (Pharmingen, Code No. 18062D) as a secondary antibody diluted to 0.5 μg/ml with a blocking buffer containing 0.05% Tween 20 was added thereto (50 μl/well), followed by incubation at room temperature for 1 hour. The plate was washed with a washing buffer four times, strept avidin-labeled peroxidase (ProZyme, Code No. CJ30H001) diluted 800 times with a blocking buffer containing 0.05% Tween 20 was added thereto (50 μl/well), followed by reaction at room temperature for 15 minutes. The plate was washed with a washing buffer four times, and a […] substrate solution (SIGMA, Code No. T-8665) was added thereto in an amount of 100 μl/well for color developing for from 10 to 20 minutes. A 1M sulfuric acid solution was added thereto in an amount of 100 μl/well to terminate the reaction, and absorption (wavelength 450 nm) was measured by means of micro plate reader (SPECTRA max, Wako Pure Chemicals Industries, Ltd.). Quantitative determination of IFN-γ was carried out in the same manner as the measurement of IL-5, employing rat anti-mouse IFN-γ antibody (Pharmingen, Code No. 18181D) and biotin labeled rat anti-mouse IFN-γ antibody (Pharmingen, Code NO. 18112D), as a primary antibody and a secondary antibody, respectively. For preparation of a standard line, recombinant mouse IFN-γ (GENZYME, Code No. 3485) was employed. The experiment was carried out in duplicate, and the average of the cytokine production amount was obtained. […]
For orientation: ELISA stands for enzyme-linked immunosorbent assay.

Data set [2] deals with interleukin 5 (IL-5) production. As to the kind of experiment: Cytokine production inhibitory effect: IL-5 production by murine spleen cells treated with anti-mouse CD3 antibody and IL-2 (ELISA). The data set is classed as cell-based, Balb/c mice. To be noted: anti-CD3 antibody + IL-2, 40 to 48 hours, read-out: IL-5 production inhibitory ratio (%); for inhibition at 100 ppm: test compound 100 ppm. The method, then: as §1, §2

As for `O=C(Nc1ccc(OCc2ncc(C(F)(F)F)cc2Cl)cc1)c1cc([N+](=O)[O-])ccc1Cl` [Compound No. 135, N-(4-(3-chloro-5-trifluoromethyl-2-pyridylmethyloxy)phenyl)-2-chloro-5-nitrobenzamide], the melting point (usually the temperature of the solid-liquid transition) fell in the range of 193 to 195 °C. In data set [1], the inhibition at 100 ppm amounted to 33%. The inhibition at 100 ppm in data set [2] was 62%.
`Cc1cc(C23CC4CC(CC(C4)C2)C3)ccc1NC(=O)c1ccc(Cl)cc1Cl` [compound 3] gave a melting point of 211 °C. Moreover, the inhibition at 100 ppm in data set [1] is 92%. The inhibition at 100 ppm in data set [2] was 79%.
Molecule `O=C(Nc1ccc(Oc2ccc(C(F)(F)F)cn2)c(Cl)c1)c1ccc(Cl)cc1` [compound 5] had a melting point of 186 to 188 °C. Further, the inhibition at 100 ppm in data set [1] was 83%. Besides, the inhibition at 100 ppm in data set [2] was determined as 76%.
The corresponding values for `O=C(Nc1ccc(Oc2ccc(C(F)(F)F)cn2)c(Cl)c1)c1cccc(Cl)c1` [compound 6] are 160 to 161 °C, 100% and 100%.
Regarding `O=C(Nc1ccc(Oc2ccc(C(F)(F)F)cn2)c(Cl)c1)c1cccc(C(F)(F)F)c1` [compound 7], the melting point was in the range of 127 to 129 °C. In addition, the inhibition at 100 ppm in data set [1] was determined as 100%. Further, the inhibition at 100 ppm in data set [2] was determined as 100%.
Take `O=C(Nc1ccc(Oc2ccc(C(F)(F)F)cn2)c(Cl)c1)c1ccc(C(F)(F)F)cc1` [compound 8]: the melting point fell in the range of 154 to 155 °C. The inhibition at 10 ppm in data set [1] (test compound 10 ppm) turned out to be 67%. For the same molecule, the inhibition at 10 ppm in data set [2] (test compound 10 ppm) is 58%.
With `COc1ccc(C(=O)Nc2ccc(Oc3ccc(C(F)(F)F)cn3)c(Cl)c2)cc1OC` [compound 9], the melting point was 152 to 154 °C. For the same molecule, the inhibition at 100 ppm in data set [1] is 100%. The inhibition at 100 ppm in data set [2] was determined as 96%.
With `O=C(Nc1ccc(Oc2ccc(C(F)(F)F)cn2)c(Cl)c1)c1ccccc1O` [compound 15], the melting point lay in the range of 165 to 167 °C. In data set [1], the inhibition at 100 ppm is 100%. In data set [2], the inhibition at 100 ppm is 99%.
For the molecule `O=CNc1cccc(C(=O)Nc2ccc(Oc3ccc(C(F)(F)F)cn3)c(Cl)c2)c1O` [compound 17], the melting point fell in the range of 159 to 161 °C. In data set [1], the inhibition at 100 ppm was determined as 100%. Further, in data set [2], the inhibition at 100 ppm was 100%.
For the molecule `O=C(Nc1ccc(Cc2ccccc2)cc1)c1cc([N+](=O)[O-])ccc1O` [compound 18], the melting point was 211.5 to 214.4 °C. Besides, the inhibition at 100 ppm in data set [1] was determined as 100%. The inhibition at 100 ppm in data set [2] was determined as 100%.
For `O=C(Nc1ccc(C23CC4CC(CC(C4)C2)C3)cc1)c1cc([N+](=O)[O-])ccc1Cl` [compound 21], the melting point was determined as 262 °C. For the same molecule, the inhibition at 100 ppm in data set [1] came out at 89%. Besides, the inhibition at 100 ppm in data set [2] is 96%.
The molecule `Cc1cc(C23CC4CC(CC(C4)C2)C3)ccc1NC(=O)c1ccccc1Cl` [compound 22] came in with a melting point of 154 °C. Besides, the inhibition at 100 ppm in data set [1] came to 100%. In addition, in data set [2], the inhibition at 100 ppm stood at 100%.
`Cc1cc(C23CC4CC(CC(C4)C2)C3)ccc1NC(=O)c1cccc([N+](=O)[O-])c1` [compound 23] returned a melting point of 177 °C. In data set [1], the inhibition at 100 ppm came out at 100%. The inhibition at 100 ppm in data set [2] was 100%.
Molecule `Cc1cc(C23CC4CC(CC(C4)C2)C3)ccc1NS(=O)(=O)c1ccccc1Cl` [compound 25] yielded a melting point of 200 °C. Further, in data set [1], the inhibition at 100 ppm was 93%. In addition, in data set [2], the inhibition at 100 ppm came out at 89%.
For the molecule `Cc1ccc(NC(=O)c2cc([N+](=O)[O-])ccc2Cl)c(C)c1` [compound 26], the melting point was 206 °C. Further, in data set [1], the inhibition at 100 ppm came out at 30%. In data set [2], the inhibition at 100 ppm amounted to 82%.
The corresponding values for `COc1ccc(NC(=O)c2cc([N+](=O)[O-])ccc2Cl)cc1` [compound 28] are 154 °C, 100% and 100%.
Molecule `CSc1ccc(NC(=O)c2cc([N+](=O)[O-])ccc2Cl)cc1` [compound 29] gave a melting point of 162 °C. Moreover, the inhibition at 100 ppm in data set [1] is 100%. For the same molecule, the inhibition at 100 ppm in data set [2] is 98%.
In turn, `O=C(Nc1ccc(C(F)(F)F)cc1)c1cc([N+](=O)[O-])ccc1Cl` [compound 30] had a melting point of 176 °C. The inhibition at 100 ppm in data set [1] was determined as 100%. In data set [2], the inhibition at 100 ppm was determined as 100%.
`Cc1cc(Oc2ccc(C(F)(F)F)cc2)ccc1NC(=O)c1cc([N+](=O)[O-])ccc1Cl` [compound 31] came in with a melting point of 196 °C. Further, in data set [1], the inhibition at 100 ppm worked out at 63%. Moreover, the inhibition at 100 ppm in data set [2] amounted to 62%.
The molecule `O=C(Nc1ccc(Sc2ccc(C(F)(F)F)cn2)cc1)c1cc([N+](=O)[O-])ccc1Cl` [compound 32] yielded a melting point of 189 °C. Moreover, in data set [1], the inhibition at 100 ppm was 98%. Further, in data set [2], the inhibition at 100 ppm was found to be 99%.
The corresponding values for `O=C(Nc1cccc(C(F)(F)F)c1)c1cc([N+](=O)[O-])ccc1Cl` [compound 33] are 168 °C, 100% and 100%.
`COC(=O)c1cccc(C(=O)Nc2ccc(C34CC5CC(CC(C5)C3)C4)cc2C)c1` [compound 34]: the melting point was 184 °C. Further, the inhibition at 100 ppm in data set [1] came to 97%. The inhibition at 100 ppm in data set [2] came out at 88%.
For `Cc1cc(C23CC4CC(CC(C4)C2)C3)ccc1NC(=O)c1cccc(C(=O)O)c1` [compound 35], the melting point came to 232 °C. In data set [1], the inhibition at 100 ppm worked out at 100%. The inhibition at 100 ppm in data set [2] is 100%.
`Cc1cc(C23CC4CC(CC(C4)C2)C3)ccc1NC(=O)c1cc([N+](=O)[O-])ccc1C` [compound 36] had a melting point of 198 °C. Also, in data set [1], the inhibition at 100 ppm came to 85%. For the same molecule, in data set [2], the inhibition at 100 ppm was found to be 81%.
The corresponding values for `O=C(Nc1ccccc1Oc1ccccc1)c1cc([N+](=O)[O-])ccc1Cl` [compound 37] are 110 °C, 100% and 97%.
On to `O=C(Nc1ccccc1-c1ccccc1)c1cc([N+](=O)[O-])ccc1Cl` [compound 38], for which the melting point came to 154 °C. In addition, in data set [1], the inhibition at 100 ppm came out at 93%. Also, the inhibition at 100 ppm in data set [2] was 86%.
As for `O=C(Nc1cccc(Oc2ccccc2)c1)c1cc([N+](=O)[O-])ccc1Cl` [compound 40], the melting point amounted to 103 °C. The inhibition at 100 ppm in data set [1] is 100%. The inhibition at 100 ppm in data set [2] is 100%.
`Cc1cc(C23CC4CC(CC(C4)C2)C3)ccc1NS(=O)(=O)c1cc([N+](=O)[O-])ccc1C` [compound 44] registered a melting point of 241 °C. For the same molecule, the inhibition at 100 ppm in data set [1] came out at 100%. For the same molecule, the inhibition at 100 ppm in data set [2] came out at 93%.
As for `Cc1cc(C23CC4CC(CC(C4)C2)C3)ccc1NC(=O)c1cc([N+](=O)[O-])ccc1F` [compound 45], the melting point stood at 198 °C. In addition, the inhibition at 100 ppm in data set [1] was 99%. Further, the inhibition at 100 ppm in data set [2] is 99%.

The values are drawn from patent US7132546B2, “Aniline derivatives or salts thereof and cytokine production inhibitors containing the same” (Ishihara Sangyo Kaisha, Ltd., priority 2000, dated 2006).
